In patent publication US20140343000A1 (priority 2011, published 2014) one finds EC50 data, which are given here for 14 compounds.

As a reminder, the EC50 is the concentration needed to bring the measured effect to its halfway point.

One assay has as its system recombinant NL4-3 virus (Renilla luciferase in nef, Gag P373S; NLRluc) in MT-2 cells. The assay can be described thus: whole plant or invertebrate. The class given is cell-based, HIV. The note with it: Renilla, NL43, luciferase activity in cells infected for 4-5 days with NLRluc recombinants, serial dilutions of inhibitor; class symbols (key in Table 1); read-out: EC50. The essentials:
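First, reporter virus was generated in 293T cells and titered on MT-2 cells. Next, MT-2 cells were infected in the presence of serial compound dilutions for 4-5 days. Finally, cells were lysed and luciferase activity was measured to quantify inhibition.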
As for `C=C(C)[C@@H]1CC[C@]2(NCCNS(=O)(=O)CCC)CC[C@]3(C)[C@H](CC[C@@H]4[C@@]5(C)CC=C(c6ccc(C(=O)O)cc6)C(C)(C)[C@@H]5CC[C@]43C)[C@@H]12` [Example B34, 4-((1R,3aS,5aR,5bR,7aR,11aS,11bR,13aR,13bR)-5a,5b,8,8,11a-pentamethyl-1-(prop-1-en-2-yl)-3a-((2-(propylsulfonamido)ethyl)amino)-2,3,3a,4,5,5a,5b,6,7,7a,8,11,11a,11b,12,13,13a,13b-octadecahydro-1H-cyclopenta[a]chrysen-9-yl)benzoic acid], the 50% effective concentration (EC50) is less than 100 nM.
Regarding `C=C(C)[C@@H]1CC[C@]2(NCCN3CCN(S(=O)(=O)CC(C)C)CC3)CC[C@]3(C)[C@H](CC[C@@H]4[C@@]5(C)CC=C(c6ccc(C(=O)O)cc6)C(C)(C)[C@@H]5CC[C@]43C)[C@@H]12` [Example B35, 4-((1R,3aS,5aR,5bR,7aR,11aS,11bR,13aR,13bR)-3a-((2-(4-(isobutylsulfonyl)piperazin-1-yl)ethyl)amino)-5a,5b,8,8,11a-pentamethyl-1-(prop-1-en-2-yl)-2,3,3a,4,5,5a,5b,6,7,7a,8,11,11a,11b,12,13,13a,13b-octadecahydro-1H-cyclopenta[a]chrysen-9-yl)benzoic acid], the EC50 is less than 100 nM.
Still for that read-out and setting: the value for `C=C(C)[C@@H]1CC[C@]2(NCCN3CCN(S(=O)(=O)c4cccnc4)CC3)CC[C@]3(C)[C@H](CC[C@@H]4[C@@]5(C)CC=C(c6ccc(C(=O)O)cc6)C(C)(C)[C@@H]5CC[C@]43C)[C@@H]12` [Example B36, 4-((1R,3aS,5aR,5bR,7aR,11aS,11bR,13aR,13bR)-5a,5b,8,8,11a-pentamethyl-1-(prop-1-en-2-yl)-3a-((2-(4-(pyridin-3-ylsulfonyl)piperazin-1-yl)ethyl)amino)-2,3,3a,4,5,5a,5b,6,7,7a,8,11,11a,11b,12,13,13a,13b-octadecahydro-1H-cyclopenta[a]chrysen-9-yl)benzoic acid] was less than 100 nM; that for `C=C(C)[C@@H]1CC[C@]2(NCCN3CCN(S(=O)(=O)N(CC)CC)CC3)CC[C@]3(C)[C@H](CC[C@@H]4[C@@]5(C)CC=C(c6ccc(C(=O)O)cc6)C(C)(C)[C@@H]5CC[C@]43C)[C@@H]12` [Example B37, 4-((1R,3aS,5aR,5bR,7aR,11aS,11bR,13aR,13bR)-3a-((2-(4-(N,N-diethylsulfamoyl)piperazin-1-yl)ethyl)amino)-5a,5b,8,8,11a-pentamethyl-1-(prop-1-en-2-yl)-2,3,3a,4,5,5a,5b,6,7,7a,8,11,11a,11b,12,13,13a,13b-octadecahydro-1H-cyclopenta[a]chrysen-9-yl)benzoic acid] was less than 100 nM.
On the same count and under the same terms, to `C=C(C)[C@@H]1CC[C@]2(NCCN3CCN(S(=O)(=O)CCCCl)CC3)CC[C@]3(C)[C@H](CC[C@@H]4[C@@]5(C)CC=C(c6ccc(C(=O)O)cc6)C(C)(C)[C@@H]5CC[C@]43C)[C@@H]12` [Example B38, 4-((1R,3aS,5aR,5bR,7aR,11aS,11bR,13aR,13bR)-3a-((2-(4-((3-chloropropyl)sulfonyl)piperazin-1-yl)ethyl)amino)-5a,5b,8,8,11a-pentamethyl-1-(prop-1-en-2-yl)-2,3,3a,4,5,5a,5b,6,7,7a,8,11,11a,11b,12,13,13a,13b-octadecahydro-1H-cyclopenta[a]chrysen-9-yl)benzoic acid] belongs less than 100 nM; to `C=C(C)[C@@H]1CC[C@]2(NCCN3CCN(S(=O)(=O)CCCC)CC3)CC[C@]3(C)[C@H](CC[C@@H]4[C@@]5(C)CC=C(c6ccc(C(=O)O)cc6)C(C)(C)[C@@H]5CC[C@]43C)[C@@H]12` [Example B39, 4-((1R,3aS,5aR,5bR,7aR,11aS,11bR,13aR,13bR)-3a-((2-(4-(butylsulfonyl)piperazin-1-yl)ethyl)amino)-5a,5b,8,8,11a-pentamethyl-1-(prop-1-en-2-yl)-2,3,3a,4,5,5a,5b,6,7,7a,8,11,11a,11b,12,13,13a,13b-octadecahydro-1H-cyclopenta[a]chrysen-9-yl)benzoic acid], less than 100 nM; to `C=C(C)[C@@H]1CC[C@]2(NCCN3CCN(S(=O)(=O)c4ccc(CC)cc4)CC3)CC[C@]3(C)[C@H](CC[C@@H]4[C@@]5(C)CC=C(c6ccc(C(=O)O)cc6)C(C)(C)[C@@H]5CC[C@]43C)[C@@H]12` [Example B40, 4-((1R,3aS,5aR,5bR,7aR,11aS,11bR,13aR,13bR)-3a-((2-(4-((4-ethylphenyl)sulfonyl)piperazin-1-yl)ethyl)amino)-5a,5b,8,8,11a-pentamethyl-1-(prop-1-en-2-yl)-2,3,3a,4,5,5a,5b,6,7,7a,8,11,11a,11b,12,13,13a,13b-octadecahydro-1H-cyclopenta[a]chrysen-9-yl)benzoic acid], less than 100 nM.
Still for that read-out and setting: to `C=C(C)[C@@H]1CC[C@]2(NCCN3CCN(S(=O)(=O)Cc4ccccc4)CC3)CC[C@]3(C)[C@H](CC[C@@H]4[C@@]5(C)CC=C(c6ccc(C(=O)O)cc6)C(C)(C)[C@@H]5CC[C@]43C)[C@@H]12` [Example B41, 4-((1R,3aS,5aR,5bR,7aR,11aS,11bR,13aR,13bR)-3a-((2-(4-(benzylsulfonyl)piperazin-1-yl)ethyl)amino)-5a,5b,8,8,11a-pentamethyl-1-(prop-1-en-2-yl)-2,3,3a,4,5,5a,5b,6,7,7a,8,11,11a,11b,12,13,13a,13b-octadecahydro-1H-cyclopenta[a]chrysen-9-yl)benzoic acid] belongs less than 100 nM.
As for `C=C(C)[C@@H]1CC[C@]2(NCCN3CCN(S(=O)(=O)CS(C)(=O)=O)CC3)CC[C@]3(C)[C@H](CC[C@@H]4[C@@]5(C)CC=C(c6ccc(C(=O)O)cc6)C(C)(C)[C@@H]5CC[C@]43C)[C@@H]12` [Example B42, 4-((1R,3aS,5aR,5bR,7aR,11aS,11bR,13aR,13bR)-5a,5b,8,8,11a-pentamethyl-3a-((2-(4-(((methylsulfonyl)methyl)sulfonyl)piperazin-1-yl)ethyl)amino)-1-(prop-1-en-2-yl)-2,3,3a,4,5,5a,5b,6,7,7a,8,11,11a,11b,12,13,13a,13b-octadecahydro-1H-cyclopenta[a]chrysen-9-yl)benzoic acid], the EC50 was less than 100 nM.
`C=C(C)[C@@H]1CC[C@]2(NCCN3CCN(S(=O)(=O)c4cn(C)cn4)CC3)CC[C@]3(C)[C@H](CC[C@@H]4[C@@]5(C)CC=C(c6ccc(C(=O)O)cc6)C(C)(C)[C@@H]5CC[C@]43C)[C@@H]12` [Example B43, 4-((1R,3aS,5aR,5bR,7aR,11aS,11bR,13aR,13bR)-5a,5b,8,8,11a-pentamethyl-3a-((2-(4-((1-methyl-1H-imidazol-4-yl)sulfonyl)piperazin-1-yl)ethyl)amino)-1-(prop-1-en-2-yl)-2,3,3a,4,5,5a,5b,6,7,7a,8,11,11a,11b,12,13,13a,13b-octadecahydro-1H-cyclopenta[a]chrysen-9-yl)benzoic acid]: the EC50 is less than 100 nM.
For `C=C(C)[C@@H]1CC[C@]2(NCCN3CCN(S(=O)(=O)c4ccccc4)CC3)CC[C@]3(C)[C@H](CC[C@@H]4[C@@]5(C)CC=C(c6ccc(C(=O)O)cc6)C(C)(C)[C@@H]5CC[C@]43C)[C@@H]12` [Example B44, 4-((1R,3aS,5aR,5bR,7aR,11aS,11bR,13aR,13bR)-5a,5b,8,8,11a-pentamethyl-3a-((2-(4-(phenylsulfonyl)piperazin-1-yl)ethyl)amino)-1-(prop-1-en-2-yl)-2,3,3a,4,5,5a,5b,6,7,7a,8,11,11a,11b,12,13,13a,13b-octadecahydro-1H-cyclopenta[a]chrysen-9-yl)benzoic acid], the EC50 is less than 100 nM.
The same measure, in the same setting: to `C=C(C)[C@@H]1CC[C@]2(NCCN3CCN(S(=O)(=O)c4ccc(Cl)cc4)CC3)CC[C@]3(C)[C@H](CC[C@@H]4[C@@]5(C)CC=C(c6ccc(C(=O)O)cc6)C(C)(C)[C@@H]5CC[C@]43C)[C@@H]12` [Example B46, 4-((1R,3aS,5aR,5bR,7aR,11aS,11bR,13aR,13bR)-3a-((2-(4-((4-chlorophenyl)sulfonyl)piperazin-1-yl)ethyl)amino)-5a,5b,8,8,11a-pentamethyl-1-(prop-1-en-2-yl)-2,3,3a,4,5,5a,5b,6,7,7a,8,11,11a,11b,12,13,13a,13b-octadecahydro-1H-cyclopenta[a]chrysen-9-yl)benzoic acid] belongs less than 100 nM.

Still in this assay, the particulars now being: Renilla, NL43, luciferase activity in cells infected for 4-5 days with NLRluc recombinants, serial dilutions of inhibitor; numeric values; read-out: EC50.
Take `C=C(C)[C@@H]1CC[C@]2(NCCNS(=O)(=O)CC)CC[C@]3(C)[C@H](CC[C@@H]4[C@@]5(C)CC=C(c6ccc(C(=O)O)cc6)C(C)(C)[C@@H]5CC[C@]43C)[C@@H]12` [Example B33, 4-((1R,3aS,5aR,5bR,7aR,11aS,11bR,13aR,13bR)-3a-((2-(ethylsulfonamido)ethyl)amino)-5a,5b,8,8,11a-pentamethyl-1-(prop-1-en-2-yl)-2,3,3a,4,5,5a,5b,6,7,7a,8,11,11a,11b,12,13,13a,13b-octadecahydro-1H-cyclopenta[a]chrysen-9-yl)benzoic acid]: the EC50 amounted to 5 nM.
Regarding `C=C(C)[C@@H]1CC[C@]2(NCCN3CCN(S(=O)(=O)c4cccc(OC)c4)CC3)CC[C@]3(C)[C@H](CC[C@@H]4[C@@]5(C)CC=C(c6ccc(C(=O)O)cc6)C(C)(C)[C@@H]5CC[C@]43C)[C@@H]12` [Example B45, 4-((1R,3aS,5aR,5bR,7aR,11aS,11bR,13aR,13bR)-3a-((2-(4-((3-methoxyphenyl)sulfonyl)piperazin-1-yl)ethyl)amino)-5a,5b,8,8,11a-pentamethyl-1-(prop-1-en-2-yl)-2,3,3a,4,5,5a,5b,6,7,7a,8,11,11a,11b,12,13,13a,13b-octadecahydro-1H-cyclopenta[a]chrysen-9-yl)benzoic acid], the EC50 was determined as 4 nM.
